Assay results as given in article PMC5146859, “Phase 1/2 study of pacritinib, a next generation JAK2/FLT3 inhibitor, in myelofibrosis or other myeloid malignancies” (Journal of Hematology & Oncology, 2016).

Tested on: patients with advanced myeloid malignancies
Assay: Phase 1 safety: adverse events (NCIC-CTCAE version 3.0)
Assay type: in vivo, human
Experimental: At screening/baseline, patients underwent a medical history, physical examination, vital sign assessment, ECOG PS assessment, electrocardiogram, and assessment of hematologic parameters and blood chemistry. Hematology/blood chemistry, physical examinations, and vital sign assessments were performed throughout treatment. Toxicity was assessed using the National Cancer Institute Common Terminology Criteria for Adverse Events (NCIC-CTCAE), version 3.0, with relationship to treatment assigned by the investigator and were recorded from the first dose of pacritinib until 30 days after the last dose. Bone marrow biopsy and/or aspirate samples were drawn at baseline, on day 1 of cycle 4 and cycle 10, as clinically indicated, and at the termination visit. Disease response and progression were determined using the relevant International Working Group (IWG) criteria.
The efficacy-evaluable population included those patients with a baseline and corresponding follow-up value. The safety population included all enrolled patients who received ≥1 dose of pacritinib.

In the case of `C1=C/COCc2cc(ccc2OCCN2CCCC2)Nc2nccc(n2)-c2cccc(c2)COC/1` [pacritinib, 11-(2-pyrrolidin-1-yl-ethoxy)-14,19-dioxa-5,7,26-triaza-tetracyclo[19.3.1.1(2,6). 1(8,12)]heptacosa-1(25),2(26),3,5,8,10,12(27),16,21,23-decaene], the “Grade 4 gastrointestinal AEs” value (phase 1) is reported as “No grade 4 gastrointestinal AEs occurred”, the “Relation of fatal AEs to treatment” value (phase 1) is reported as “None of the AEs were considered to be related to treatment” and the “Treatment-emergent AE: Abdominal distension” value (phase 1, 100 mg, n = 3) is reported as 0 n (%). The “Treatment-emergent AE: Abdominal pain” value (phase 1, 100 mg, n = 3) was 1 (33.3) n (%), the “Treatment-emergent AE: Anemia” value (phase 1, 100 mg, n = 3) was 0 n (%) and the “Treatment-emergent AE: Any AE” value (phase 1, 100 mg, n = 3) was 3 (100.0) n (%). For the same compound, the “Treatment-emergent AE: Asthenia” value (phase 1, 100 mg, n = 3) was 2 (66.7) n (%), the “Treatment-emergent AE: Back pain” value (phase 1, 100 mg, n = 3) was 1 (33.3) n (%) and the “Treatment-emergent AE: Cardiac murmur” value (phase 1, 100 mg, n = 3) was 1 (33.3) n (%). For the same compound, the “Treatment-emergent AE: Chills” value (phase 1, 100 mg, n = 3) was 0 n (%), the “Treatment-emergent AE: Constipation” value (phase 1, 100 mg, n = 3) was 2 (66.7) n (%) and the “Treatment-emergent AE: Cough” value (phase 1, 100 mg, n = 3) was 1 (33.3) n (%). The “Treatment-emergent AE: Decreased appetite” value (phase 1, 100 mg, n = 3) was 2 (66.7) n (%), the “Treatment-emergent AE: Dehydration” value (phase 1, 100 mg, n = 3) was 0 n (%) and the “Treatment-emergent AE: Diarrhea” value (phase 1, 100 mg, n = 3) was 2 (66.7) n (%). The “Treatment-emergent AE: Dizziness” value (phase 1, 100 mg, n = 3) was 0 n (%), the “Treatment-emergent AE: Dyspnea” value (phase 1, 100 mg, n = 3) was 2 (66.7) n (%) and the “Treatment-emergent AE: Edema peripheral” value (phase 1, 100 mg, n = 3) was 2 (66.7) n (%). For the same compound, the “Treatment-emergent AE: Epistaxis” value (phase 1, 100 mg, n = 3) was 2 (66.7) n (%), the “Treatment-emergent AE: Fatigue” value (phase 1, 100 mg, n = 3) was 1 (33.3) n (%) and the “Treatment-emergent AE: Hyperbilirubinemia” value (phase 1, 100 mg, n = 3) was 1 (33.3) n (%). The “Treatment-emergent AE: Hyperuricemia” value (phase 1, 100 mg, n = 3) was 1 (33.3) n (%), the “Treatment-emergent AE: Insomnia” value (phase 1, 100 mg, n = 3) was 1 (33.3) n (%) and the “Treatment-emergent AE: Nausea” value (phase 1, 100 mg, n = 3) was 0 n (%). The “Treatment-emergent AE: Neutropenia” value (phase 1, 100 mg, n = 3) was 1 (33.3) n (%), the “Treatment-emergent AE: Night sweats” value (phase 1, 100 mg, n = 3) was 1 (33.3) n (%) and the “Treatment-emergent AE: Pain in extremity” value (phase 1, 100 mg, n = 3) was 3 (100.0) n (%). The “Treatment-emergent AE: Petechiae” value (phase 1, 100 mg, n = 3) was 2 (66.7) n (%), the “Treatment-emergent AE: Pyrexia” value (phase 1, 100 mg, n = 3) was 1 (33.3) n (%) and the “Treatment-emergent AE: Skin lesion” value (phase 1, 100 mg, n = 3) was 0 n (%). The “Treatment-emergent AE: Thrombocytopenia” value (phase 1, 100 mg, n = 3) was 1 (33.3) n (%), the “Treatment-emergent AE: Upper respiratory tract infection” value (phase 1, 100 mg, n = 3) was 0 n (%) and the “Treatment-emergent AE: Vomiting” value (phase 1, 100 mg, n = 3) was 0 n (%). The “Treatment-emergent AE: Abdominal distension” value (phase 1, 150 mg, n = 6) was 0 n (%), the “Treatment-emergent AE: Abdominal pain” value (phase 1, 150 mg, n = 6) was 1 (16.7) n (%) and the “Treatment-emergent AE: Anemia” value (phase 1, 150 mg, n = 6) was 1 (16.7) n (%). For the same compound, the “Treatment-emergent AE: Any AE” value (phase 1, 150 mg, n = 6) was 6 (100.0) n (%), the “Treatment-emergent AE: Asthenia” value (phase 1, 150 mg, n = 6) was 2 (33.3) n (%) and the “Treatment-emergent AE: Back pain” value (phase 1, 150 mg, n = 6) was 2 (33.3) n (%). For the same compound, the “Treatment-emergent AE: Cardiac murmur” value (phase 1, 150 mg, n = 6) was 0 n (%), the “Treatment-emergent AE: Chills” value (phase 1, 150 mg, n = 6) was 2 (33.3) n (%) and the “Treatment-emergent AE: Constipation” value (phase 1, 150 mg, n = 6) was 2 (33.3) n (%). The “Treatment-emergent AE: Cough” value (phase 1, 150 mg, n = 6) was 1 (16.7) n (%), the “Treatment-emergent AE: Decreased appetite” value (phase 1, 150 mg, n = 6) was 2 (33.3) n (%) and the “Treatment-emergent AE: Dehydration” value (phase 1, 150 mg, n = 6) was 1 (16.7) n (%). For the same compound, the “Treatment-emergent AE: Diarrhea” value (phase 1, 150 mg, n = 6) was 2 (33.3) n (%), the “Treatment-emergent AE: Dizziness” value (phase 1, 150 mg, n = 6) was 0 n (%) and the “Treatment-emergent AE: Dyspnea” value (phase 1, 150 mg, n = 6) was 1 (16.7) n (%). The “Treatment-emergent AE: Edema peripheral” value (phase 1, 150 mg, n = 6) was 2 (33.3) n (%), the “Treatment-emergent AE: Epistaxis” value (phase 1, 150 mg, n = 6) was 1 (16.7) n (%) and the “Treatment-emergent AE: Fatigue” value (phase 1, 150 mg, n = 6) was 1 (16.7) n (%). For the same compound, the “Treatment-emergent AE: Hyperbilirubinemia” value (phase 1, 150 mg, n = 6) was 1 (16.7) n (%), the “Treatment-emergent AE: Hyperuricemia” value (phase 1, 150 mg, n = 6) was 1 (16.7) n (%) and the “Treatment-emergent AE: Insomnia” value (phase 1, 150 mg, n = 6) was 1 (16.7) n (%). For the same compound, the “Treatment-emergent AE: Nausea” value (phase 1, 150 mg, n = 6) was 1 (16.7) n (%), the “Treatment-emergent AE: Neutropenia” value (phase 1, 150 mg, n = 6) was 2 (33.3) n (%) and the “Treatment-emergent AE: Night sweats” value (phase 1, 150 mg, n = 6) was 0 n (%). For the same compound, the “Treatment-emergent AE: Pain in extremity” value (phase 1, 150 mg, n = 6) was 0 n (%), the “Treatment-emergent AE: Petechiae” value (phase 1, 150 mg, n = 6) was 2 (33.3) n (%) and the “Treatment-emergent AE: Pyrexia” value (phase 1, 150 mg, n = 6) was 2 (33.3) n (%). For the same compound, the “Treatment-emergent AE: Skin lesion” value (phase 1, 150 mg, n = 6) was 4 (66.7) n (%), the “Treatment-emergent AE: Thrombocytopenia” value (phase 1, 150 mg, n = 6) was 2 (33.3) n (%) and the “Treatment-emergent AE: Upper respiratory tract infection” value (phase 1, 150 mg, n = 6) was 2 (33.3) n (%). The “Treatment-emergent AE: Vomiting” value (phase 1, 150 mg, n = 6) was 1 (16.7) n (%), the “Treatment-emergent AE: Abdominal distension” value (phase 1, 200 mg, n = 9) was 2 (22.2) n (%) and the “Treatment-emergent AE: Abdominal pain” value (phase 1, 200 mg, n = 9) was 1 (11.1) n (%). The “Treatment-emergent AE: Anemia” value (phase 1, 200 mg, n = 9) was 1 (11.1) n (%), the “Treatment-emergent AE: Any AE” value (phase 1, 200 mg, n = 9) was 9 (100.0) n (%) and the “Treatment-emergent AE: Asthenia” value (phase 1, 200 mg, n = 9) was 1 (11.1) n (%). For the same compound, the “Treatment-emergent AE: Back pain” value (phase 1, 200 mg, n = 9) was 0 n (%), the “Treatment-emergent AE: Cardiac murmur” value (phase 1, 200 mg, n = 9) was 1 (11.1) n (%) and the “Treatment-emergent AE: Chills” value (phase 1, 200 mg, n = 9) was 0 n (%). For the same compound, the “Treatment-emergent AE: Constipation” value (phase 1, 200 mg, n = 9) was 2 (22.2) n (%), the “Treatment-emergent AE: Cough” value (phase 1, 200 mg, n = 9) was 1 (11.1) n (%) and the “Treatment-emergent AE: Decreased appetite” value (phase 1, 200 mg, n = 9) was 0 n (%).
